Consider 3 molecules from patent US10526402B2, “Anti-TGF-beta antibody for the treatment of fanconi anemia” (Dana-Farber Cancer Institute, Inc., priority 2015, dated 2020).

In one series the test system is U2OS cells. Kind of series: Homologous recombination assay with DR-GFP reporter. It counts as cell-based. The settings on record: 10 μM B02, FIG. 8D. The method, then:
(§1) (A) Experimental scheme for inhibition of TGF-β Pathway in mice. WT or Fancd2−/− mice were treated with isotype or 1D11 antibody (10 mg/kg) for 48h, and bone marrow HSCs were sorted for gene expression profile and cell cycle analysis. […] Cell cycle analysis of HSCs from WT or Fancd2−/− mice treated with isotype or 1D11 antibody for 48h is shown. Error bars represent mean±s.e.m. (n=4 mice per group). […] Homologous recombination assay was measured in U2OS cells with DR-GFP reporter after treatment with […] RI-1 and 10 μM B02. The representative of two independent experiments is presented; error bars represent mean±s.e.m. […] GM6914 (FA-A) cells or corrected GM6914+FANCA cells were treated with 1 μM MMC and 10 μM inhibitors for 6h before immunofluorescence analysis. Representative images (E) and quantification (F) of RAD51 foci are shown. […] HSPCs from WT or Fancd2−/− mice were treated with B02 (10 μM) or RI-1 ([…]) in vitro for five days and survival was determined. […] HSPCs from WT or Fancd2−/− mice were exposed to 1D11 (10 μg/mL) and RAD51 inhibitors (10 μM) for 30 min followed by exposure to acetaldehyde for 4 hrs. The cells were then washed and cultured in presence of 1D11 and RAD51 inhibitors for 7-9 days, and hematopoietic colonies were counted.

The next series has as its system GM6914 (FA-A) cells. Briefly: RAD51 foci formation by immunofluorescence. In kind it is cell-based. The settings on record: 1 μM MMC and 10 μM inhibitors for 6h; FIG. 8E, F. The method, then: as §1
Cells were grown on coverslip for 24 hours before treated with MMC. […]

Series [1] relates to HSPCs from WT or Fancd2−/− mice. Kind of series: Cytotoxicity of RAD51 inhibitors in HSPCs. In kind it is cell-based, mouse. The settings on record: B02 (10 μM) or RI-1 (1004) in vitro for five days; FIG. 8G. The method, then:
as §1

Series [2] has as its system Lin− cells from WT and Fancd2−/− mice. Briefly: Lin− cell growth under mTGFβ. It counts as cell-based, mouse. The settings on record: mTGFβ 1 ng/mL; FIG. 2B. The method, then: For mouse hematopoietic stem/progenitor cell culture, Lin^− cells were cultured in vitro in StemSpan SFEM media with 10 ng/mL SCF, 20 ng/mL IGF-2, 20 ng/mL TPO, 10 ng/mL heparin, and 10 ng/mL a-FGF. Half media was changed every three days. For human cord blood cells, CD34+ cells were isolated using CD34 microbead kit (Miltenyi Biotec). Cells were cultured in StemSpan SFEM media with 100 ng/mL hSCF, 100 ng/mL FLT3 ligand, 10 ng/mL TPO, 10 ng/mL IL-6. Cells were treated with 10 ug/mL 1D11 or 10 μM SD208.
To perform flow cytometry analysis, Lin^− cells were collected at day 2 and 5 post transduction and suspended in staining medium (PBS with 2% heat-inactivated calf serum), and incubated with PE-conjugated c-Kit and APC-conjugated Sca-1 antibodies were added to the cells for 30 min at 4° C. in the dark. Stem cell population (GFP^+Lin^−c-Kit^+Sca-1^+) was analyzed by FACS. All these antibodies were purchased from eBioscience.

A further series concerns Fancd2−/− stromal cells. Briefly: Survival of stromal cells in the presence of MMC. It counts as cell-based, mouse. The settings on record: FIG. 1A. The method, then:
For survival assays, cells were seeded at a density of 1×10^3 cells per well in 96-well plates. After 72 hours of culture in indicated concentrations of MMC or post exposure of acetaldehyde, viability was assessed using CellTiterGlo reagent (Promega). In order to assess clonogenicity, cells were seeded at a low density (500-1000 cells per well) in 6-well plates and allowed to form colonies. The cells were then fixed in methanol/20% acetic acid and stained with 1% crystal violet. Colony formation was assessed by solubilizing crystal violet stain with methanol and quantifying UV absorbance for each condition.
For survival assays, cells were seeded at a density of 1×10^3 cells per well in 96-well plates. After 3-6 days of culture in indicated concentrations of MMC or post exposure of acetaldehyde, viability was assessed using CellTiterGlo reagent (Promega). In order to assess clonogenicity, cells were seeded at a low density (500-1000 cells per well) in 6-well plates and allowed to form colonies. The cells were then fixed in methanol/20% acetic acid and stained with 1% crystal violet. Colonies were counted after crystal violet staining.

In another series the test system is TGFβ pathway. Briefly: Immunoblot of p-Smad2 in stromal cells. In kind it is cell-based, mouse. The settings on record: FIG. 1A bottom panel. In general terms: A western blot detects proteins with antibodies after separation by electrophoresis.

Structures are written as SMILES.

As for `O=c1c2ccccc2nc(/C=C/c2cccnc2)n1Cc1ccccc1` [B02], in the series with U2OS cells, the “HR efficiency (DR-GFP recombination)” value is “significantly decrease HR efficiency”. In the series with GM6914 (FA-A) cells, the RAD51 foci formation result is given as “efficiently block RAD51 foci formation”. In addition, in series [1], the “cytotoxicity in HSPCs (survival)” value is “do not show cytotoxicity”.

As for `O=C1C(Cl)=C(N2CCOCC2)C(=O)N1c1ccc(Cl)c(Cl)c1` [RI-1], in the series on U2OS cells, the “HR efficiency (DR-GFP recombination)” value is listed as “significantly decrease HR efficiency”. Further, the RAD51 foci formation result in the series with GM6914 (FA-A) cells is given as “efficiently block RAD51 foci formation”. In addition, the “cytotoxicity in HSPCs (survival)” value in series [1] was “do not show cytotoxicity”.

As to `Fc1ccc(Cl)cc1-c1nc(Nc2ccncc2)c2nccnc2n1` [SD208], in series [2], the “suppressive effect of exogenous mTGFβ on Lin− cell growth” value is given as “rescued the inhibitory effect”. In addition, the “MMC sensitivity / resistance (survival) of Fancd2−/− stromal cells” value in the series with Fancd2−/− stromal cells is on record as “restores MMC resistance”. The “activation of the TGFβ pathway (p-Smad2) in murine stromal cells” value in the series with TGFβ pathway is on record as “inhibition of TGFβ signaling”.
